Data on three substances can be found in patent publication US20250017949A1, “METHODS AND COMPOSITIONS FOR SUPPRESSING AGING-ASSOCIATED CLONAL HEMATOPOIESIS” (The Jackson Laboratory, priority 2021, published 2025).

Assay [1] relates to Dnmt3a^R878H/+ cells. The assay is described as follows: Etanercept transplants (pan-TNFα blockade after competitive secondary transplant). It is filed as in vivo, mouse. An excerpt: FIGS. 7A-7H: TNFR1 is required for Dnmt3a^R878H/+ HSC self-renewal while TNFR2 regulates lymphoid cell production. (FIG. 7A) Schematic of experimental design to test competitive, serial transplant of Mx-Cre control, Dnmt3a^R878H/+(R878H/+), Dnmt3a^R878H/+ Tnfrsf1a^−/− (R878H/+; TNFR1KO) and Dnmt3a^R878H/+ Tnfrsf1b^−/− (R878H/+; TNFR2KO) in aged (>12 mo) recipient mice. (FIG. 7B) Frequency of donor cells in PB (left) and BM (right) of recipient mice at 20 weeks post-secondary transplant. Significance was calculated using Brown-Forsythe and Welch ANOVA with Welch's correction. (FIG. 7C) Representative flow cytometry plots showing B cell and myeloid cell frequencies in donor derived PB. (FIG. 7D) Frequency of B cells (left), T cells (center) and myeloid cells (right) in donor derived PB at 20 weeks post-secondary transplant. Significance was calculated using one-way ANOVA with Tukey's multiple comparisons test. (FIG. 7E) Experimental schematic of transplant experiment with etanercept treatment. (FIG. 7F) Frequency of control or R878H/+ donor cells in PB pre- and post-etanercept treatment. Significance was calculated using two-way ANOVA with Fisher's LSD. (FIG. 7G) Frequency of control or R878H/+ donor cells in BM post-etanercept or vehicle treatment. Significance was calculated using two-way ANOVA with Fisher's LSD. (FIG. 7H) Frequency of HSC, MPP^Mk/E, MPP^G/M, and MPP^Ly populations in control or R878H/+ BM. Significance was calculated using two-way ANOVA with Fisher's LSD. (FIGS. 7B and 7D) Dots represent individual recipient mice, boxes show 25 to 75th percentile, line is median, whiskers show min to max. (FIG. 7F) Dots represent mean across biological replicates (n=4). (FIGS. 7G and 7H) Bars represent mean+/− SEM (n=4). *P<0.05, **P<0.01, ***P<0.001, ****P<0.0001.
TNFα signaling occurs through two distinct TNFα receptors, TNFR1 (Tnfrsf1a) and TNFR2 (Tnfrsf1b). Both TNFR1 and TNFR2 are expressed on HSC and MPP populations and are not altered in surface expression between control and Dnmt3a^R878H/+ mice (data not shown). To determine which of these receptors are responsible for TNFα-mediated selective advantage of Dnmt3a^R878H/+ HSCs and B lymphoid cell production, we crossed Dnmt3a^R878H/+ mice with Tnfrsf1a or Tnfrsf1b knockout mice (data not shown) and tested HSC function by competitive serial BM transplantation into aged recipients (FIG. 7A). […]
1×10^6 BM cells from 2-4-month-old Dnmt3a^+/+ Mx-Cre or Dnmt3a^fl-R878H/+ Mx-Cre donors were competitively transplanted with wild-type CD45.1+ CD45.2+ F1 BM cells in 2-4-month-old CD45.1+ lethally irradiated recipients. […] PB was monitored weekly and at 28 weeks post-transplant, bone marrow was harvested for analysis.

The test system of assay [2] is STAT3. The assay is described as follows: Phosphorylation in HSPCs in response to recombinant OSM stimulation. In kind it is cell-based, mouse. Conditions: recombinant OSM stimulation for 30 minutes; FIG. 10G. An excerpt:
(§1) FIGS. 10A-10G: OSM signaling is increased in Dnmt3a-mutant hematopoietic stem cells (HSCs) in an aged bone marrow microenvironment. (FIG. 10A) Experiment design. (FIG. 10B) Volcano plot of differentially expressed genes between Dnmt3a-mutant (R878H) vs. wild-type (+/+) HSCs in young recipients (left panel) and aged recipients (right panel). […] (FIG. 10C) Ingenuity Pathway Analysis prediction of upstream factors that would produce the differential gene expression pattern observed in aged recipients shown in FIG. 10B. (FIG. 10D) Gene set enrichment analysis of OSM signaling signature in Dnmt3a-mutant (R878H) vs. wild-type (+/+) HSCs specifically in aged recipient mice. (FIG. 10E) OSM levels in bone marrow fluid of young, middle-aged and old C57BL/6 wild-type mice assessed by ELISA. (FIG. 10F) Schematic of OSM-OSMR signaling pathway with differentially expressed genes in Dnmt3a-mutant vs. control HSCs colored in green (increased) or orange (decreased). (FIG. 10G) Phosphorylation of Stat3 (left panel) and Stat5 (right panel) in wild-type or Dnmt3a-mutant HSPCs in response to recombinant OSM stimulation for 30 minutes.
(§2) To determine which factor(s) might be elevated in the aged bone marrow microenvironment that would impact Dnmt3a-mutant HSPCs, donor-derived hematopoietic stem cells (HSCs) were re-isolated from the experiment shown in FIG. 9A (design shown in FIG. 10A). […]

Assay [3] has as its system STAT5. The description is as above. It is filed as cell-based, mouse. The settings on record: recombinant OSM stimulation for 30 minutes; FIG. 10G.
Description: as §1, §2

In assay [4] the test system is Dnmt3a-mutant HSCs vs wild-type HSCs. The assay is described as follows: Mixed HSC culture with or without recombinant OSM, then transplant and engraftment. In kind it is in vivo, mouse. The settings on record: then transplant, FIGS. 11B-11C. An excerpt:
(FIG. 11A) Experiment design. Contribution of wild-type (WT F1) and competitor Dnmt3a-mutant (R878H/+) cells to peripheral blood (FIG. 11B) and bone marrow (FIG. 11C) of recipient mice after culture with or without recombinant OSM.
Next, to determine if OSM stimulation has a differential functional effect on Dnmt3a-mutant vs. control HSCs, we established mixed cultures of purified control and Dnmt3a-mutant HSCs in culture conditions that promote HSC self-renewal and expansion. To test HSC function, we transplanted cells at the end of the culture period into recipient mice and measured their engraftment capacity (FIG. 11A). We find that in absence of OSM there is similar or equal engraftment of wild-type and Dnmt3a-mutant competitor cells in recipient mice (FIGS. 11B-11C). […] This finding supports that OSM is a major factor causing clonal hematopoiesis.

The test system of assay [5] is wild-type MxCre control hematopoietic stem and progenitor cells. The assay is described as follows: Myeloid colony formation in media containing MitoQ or vehicle (DMSO). It is filed as cell-based, mouse. Conditions: in vitro, MitoQ vs vehicle (DMSO); FIG. 3. The procedure:
(§3) Number of myeloid colonies produced from wild-type MxCre control or Dnmt3a-mutant (D3a) hematopoietic stem and progenitor cells in media containing MitoQ or vehicle (DMSO).
(§4) To evaluate the extent to which targeting defects in mitochondrial metabolism might improve wild-type HSC function and thus reduce the selective advantage of Dnmt3a-mutant HSCs, cells were treated with the mitochondrially targeted antioxidant mitoquinol (MitoQ) in vitro and in vivo. […] Treatment with MitoQ or other methods to improve mitochondrial metabolism are attractive targets to consider in the treatment of clonal hematopoiesis and prevention of leukemia.

Assay [6] relates to Dnmt3a-mutant (D3a) hematopoietic stem and progenitor cells. The assay is described as above. The settings on record: in vitro, MitoQ vs vehicle (DMSO), FIG. 3. It is filed as cell-based, mouse. On the procedure: as §3, §4
Assay [7] has as its system Dnmt3a-mutant (D3a) hematopoietic stem cells. The assay is described as follows: In vivo MitoQ treatment after transplant into aged recipient mice. Conditions: in vivo MitoQ vs vehicle (PBS) after transplant into aged recipient mice, FIG. 4. Set-up: species or system mouse. On the procedure: Frequency of donor-derived cells produced from wild-type (MxCre) control or Dnmt3a-mutant (D3a) hematopoietic stem cells post-transplantation and in vivo treatment with MitoQ or vehicle (PBS).
as §4

[8] abbreviates: etanercept 25 mg/kg IP twice per week for four weeks vs vehicle, FIG. 7H.

Entries after “also recorded” stand apart in the source; their conditions may differ.

Consider Etanercept, for which, in assay [1] (etanercept 25 mg/kg IP twice per week for four weeks vs vehicle, FIG. 7G), the “Frequency of R878H/+ donor cells in BM (BM engraftment)” value is recorded as “trended toward reduction in BM engraftment”. In assay [1] (setting [8]), the “Frequency of Dnmt3a^R878H/+ HSC, MPP^Mk/E and MPP^Ly populations in BM” value is reported as “reduced the frequency”; the “Frequency of Dnmt3a^R878H/+ myeloid-primed multipotent progenitors MPP^G/M in BM” value is on record as “trend toward increase”. For the same substance, in assay [1] (etanercept 25 mg/kg IP twice per week for four weeks, pre- vs post-treatment, FIG. 7F), the “Frequency of R878H/+ donor cells in PB (competitive PB advantage)” value is recorded as “reduced the competitive PB advantage”.

On to “OSM: recombinant pro-inflammatory cytokine Oncostatin M used to stimulate HSCs/HSPCs”, for which, in assay [2], the “Phosphorylation of STAT3 in Dnmt3a-mutant vs control HSPCs” value is “greater phosphorylation of STAT3; also recorded: greater downstream Stat3 phosphorylation compared to control HSCs”. The “Phosphorylation of STAT5 in HSPCs” value in assay [3] is recorded as “phosphorylation of STAT5 was not seen”. Moreover, the “Engraftment of Dnmt3a-mutant vs wild-type cells in peripheral blood and bone marrow of recipient mice” value is on record as “favors growth of Dnmt3a-mutant hematopoietic stem cells (HSCs); also recorded: greater multi-lineage engraftment capacity in recipient mice compared to OSM-treated wild-type HSCs” in assay [4] and “entirely favors growth of Dnmt3a-mutant HSCs over wild-type cells” in assay [4] (listed as recombinant OSM).

With mitoquinol, in assay [5], the “Myeloid differentiation of wild-type control cells” value is listed as “did not impact differentiation of wild-type control cells”. Moreover, the “Number of myeloid colonies / progeny produced from Dnmt3a-mutant cells” value was “reduce number of progeny produced from Dnmt3a-mutant cells; also recorded: decreases myeloid differentiation of hematopoietic stem and progenitor cells in vitro” in assay [6]; “reduced myeloid differentiation of Dnmt3a-mutant HSCs” in assay [6] (listed as MitoQ®). The “Contribution of Dnmt3a-mutant cells to hematopoiesis (frequency of donor-derived cells)” value in assay [7] was “reduced contribution of Dnmt3a-mutant cells to hematopoiesis; also recorded: decreases contribution of Dnmt3a-mutant cells to mature hematopoiesis in vivo”; in assay [7] (listed as MitoQ®), “impaired differentiation and mature cell production from Dnmt3a-mutant HSCs”.
